Data on 7 molecules can be found in patent publication US20060251638A1, “Cytoprotection through the use of hif hydroxylase inhibitors” (priority 2003, published 2006).

For one assay, the system named is H9c2 rat cardiomyocytes. The assay can be described thus: Intracellular ATP levels in H9c2 cardiomyocytes after oxygen and glucose deprivation (glucose-free DMEM, 2 mM KCN). To be noted: H9c2, 20 μM pretreatment 24 hours, glucose-free DMEM and 2 mM KCN for 30 minutes; vehicle control 415. The assay is classed as cell-based. The method, then:
In similar experiments, H9c2 rat cardiomyocytes were pretreated with either vehicle control (0.5% DMSO) or 20 μM of Compound A, Compound B, Compound C, Compound D, Compound E, Compound F, Compound G, or compound H. After 24 hours, cells were washed with serum-free DMEM and subjected to oxygen and glucose deprivation by incubating the cells in glucose-free DMEM and 2 mM KCN for 30 minutes. Intracellular ATP levels were then determined.

In assay [1] the test system is gene encoding adrenomedullin. The assay can be described thus: Adrenomedullin gene expression in Hep3B cells (microarray). To be noted: 25 μM compound, 6 hrs, average of two determinations. Type of assay: cell-based, human. The method, then:
Hep3B cells (ATCC No. HB-8064) were grown in DMEM containing 8% fetal bovine serum. Hep3B cells were seeded into 6-well culture dishes at ˜500,000 cells per well. After 8 hours, the media was changed to DMEM containing 0.5% fetal bovine serum and the cells were incubated for an additional 16 hours. Compound A, compound B, compound C, compound G, or compound H was added to the cells (25 μM final concentration) and the cells were incubated for various times. Control cells were incubated with vehicle (DMSO) with no compound treatment. Harvested cells were assessed for cell viability (GUAVA), or added to RNA extraction buffer (RNeasy, Qiagen) and stored at −20° C. for subsequent RNA purification.
RNA was precipitated in 0.3 M sodium acetate (pH 5.2), 50 ng/ml glycogen, and 2.5 volumes of ethanol for one hour at −20° C. Samples were centrifuged and pellets were washed with cold 80% ethanol, dried, and resuspend in water. Double stranded cDNA was synthesized using a T7-(dT)24 first strand primer (Affymetrix, Inc., Santa Clara Calif.) and the SUPERSCRIPT CHOICE system (Invitrogen) according to the manufacturer's instructions. The final cDNA was extracted with an equal volume of 25:24:1 phenol:chloroform:isoamyl alcohol using a PHASE LOCK GEL insert (Brinkman, Inc., Westbury N.Y.). The aqueous phase was collected and cDNA was precipitated using 0.5 volumes of 7.5 M ammonium acetate and 2.5 volumes of ethanol. Alternatively, cDNA was purified using the GENECHIP sample cleanup module (Affymetrix) according to the manufacturer's instructions.
Biotin-labeled cRNA was synthesized from the cDNA in an in vitro […] (IVT) reaction using a BIOARRAY HighYield RNA transcript labeling kit (Enzo Diagnostics, Inc., Farmingdale N.Y.) according to the manufacturer's instructions. Final labeled product was purified and fragmented using the GENECHIP sample cleanup module (Affymetrix) according to the manufacturer's instructions.
Hybridization cocktail was prepared by bringing 5 μg probe to 100 μl in 1× hybridization buffer (100 mM MES, 1 M [Na^+], 20 mM EDTA, 0.01% Tween 20), 100 μg/ml herring sperm DNA, 500 μg/ml acetylated BSA, 0.03 nM contol oligo B2 (Affymetrix), and 1× GENECHIP eukaryotic hybridization control (Affymetrix). The cocktail was sequentially incubated at 99° C. for 5 minutes and 45° C. for 5 minutes, and then centrifuged for 5 minutes. The […] array (Affymetrix) was brought to room temperature and then prehybridized with 1× hybridization buffer at 45° C. for 10 minutes with rotation. The buffer was then replaced with 80 μl hybridization cocktail and the array was hybridized for 16 hours at 45° C. at 60 rpm with counter balance. Following hybridization, arrays were washed once with 6×SSPE, 0.1% Tween 20, and then washed and stained using R-phycoerythrin-conjugated streptavidin (Molecular Probes, Eugene Oreg.), goat anti-streptavidin antibody (Vector Laboratories, Burlingame Calif.), and a GENECHIP Fluidics Station 400 instrument (Affymetrix) according to the manufacturer's EukGE-WS2v4 protocol (Affymetrix). Arrays were analyzed using a GENEARRAY scanner (Affymetrix) and Microarray Suite software (Affymetrix).
RNA quality was monitored by capillary electrophoresis (Agilent Bioanalyzer). […] Array performance was analyzed with Affymetrix MicroArray Suite (MAS) software and individual probe sets were assigned “present”, “marginal, and “absent” calls according to software defaults. […]

In assay [2] the test system is adrenomedullin gene expression. The assay can be described thus: Adrenomedullin gene expression in H9c2 cardiomyocytes with or without KCN challenge. Type of assay: cell-based, rat. Particulars: H9c2, 10 μM compound 24 hours. The method, then: Adrenomedullin gene expression was also examined in cardiomyocytes treated with compound and subsequently challenged with KCN, an inhibitor of oxidative glucose metabolism. H9c2 rat cardiomyocytes were cultured in 96-well tissue culture plates (approximately 20,000 cells per well) in DMEM containing 10% fetal bovine serum. Media was changed to DMEM containing 0.5% fetal bovine serum, and the cells were treated with 10 μM compound C or compound D for 24 hours. Media was then replaced with glucose-free DMEM (Gibco/Invitrogen Cat. # 11966-025) containing 2 mM KCN (Sigma-Aldrich Cat. No. 207810). Results of adrenomedullin gene expression, presented as fold-increase in gene expression above DMSO control, are shown below in Table 2.

In a further assay the test system is HO-1 protein. The assay is described as follows: HO-1 protein levels in H9c2 cardiomyocytes by ELISA. Type of assay: cell-based, rat. To be noted: H9c2, 100 μM compound; control 2.86. The method, then:
In another series of experiments, H9c2 rat cardiomyocytes were treated with either vehicle control or with various concentrations (1 μM, 3 μM, 10 μM, 30 μM, and 100 μM) of compound C or compound G. Cell lysates were harvested and HO-1 protein levels determined by ELISA according to the manufacturer's instructions (cat # EKS-810; Stressgen, Victoria, BC, Canada). Data shown below in Table 4 represents values obtain with 100 μM compound.
(In general: An ELISA detects its analyte on a solid surface through an enzyme-linked reagent.)

A further assay concerns gene encoding HSP70-3. The assay can be described thus: HSP70-3 mRNA levels in mouse tissues after oral dosing (microarray). The assay is classed as in vivo. As to the method: Twelve Swiss Webster male mice (30-32 g) were obtained from Simonsen, Inc (Gilroy, Calif.) and treated by oral gavage two times per day for 2.5 days (5 doses) with a 4 ml/kg volume of either 0.5% carboxymethyl cellulose (CMC; Sigma-Aldrich, St. Louis Mo.) (0 mg/kg/day) or 2.5% compound H (25 mg/ml in 0.5% CMC) (200 mg/kg/day). Four hours after the final dose, the mice were then sacrificed and approximately 150 mg of liver and each kidney were isolated and stored in RNALATER solution (Ambion) at −20° C.
To determine gene induction patterns over time, twenty four Swiss Webster male mice (30-32 g) were obtained from Simonsen, Inc. and treated by oral gavage with a 4 ml/kg volume of either 0.5% carboxymethyl cellulose (CMC; Sigma-Aldrich, St. Louis Mo.) (0 mg/kg) or […] compound H (25 mg/ml in 0.5% CMC) (100 mg/kg). At 4, 8, 16, 24, 48, or 72 hours after the final dose, animals were anesthetized with isoflurane. The mice were then sacrificed and tissue samples of kidney, liver, brain, lung, and heart were isolated and stored in RNALATER solution (Ambion) at −80° C. RNA isolation and gene expression analysis were performed as described below.
RNA isolation was carried out using the following protocol. A section of each organ was diced, 875 μl of RLT buffer (RNEASY kit; Qiagen Inc., Valencia Calif.) was added, and the pieces were homogenized for about 20 seconds using a rotor-stator POLYTRON homogenizer (Kinematica, Inc., Cincinnati Ohio). […] The RNA was eluted into […] of water and quantitated with RIBOGREEN reagent (Molecular Probes, Eugene Oreg.). The absorbance at 260 and 280 nm was measured to determine RNA purity and concentration.
Alternatively, tissue samples were diced and homogenized in TRIZOL reagent (Invitrogen Life Technologies, Carlsbad Calif.) using a rotor-stator POLYTRON homogenizer (Kinematica). […] The absorbance at 260 and 280 nm was measured to determine RNA purity and concentration. […]

Setting [3] is: then glucose-free DMEM with 2 mM KCN.
Setting [4] is: Animal Study III: mice, oral gavage, 100 mg/kg.

On to `O=C(O)c1c[nH]c2c(ccc3cccnc32)c1=O` [Compound A, 4-Oxo-1,4-dihydro-[1,10]phenanthroline-3-carboxylic acid], for which, in the assay on H9c2 rat cardiomyocytes, the “ATP (relative light units)” value came out at 968.5 relative light units. Moreover, the “Adrenomedullin gene expression, fold-increase above non-treated control” value in assay [1] is 3.582 fold.

As to `COc1ccc(CCN(CCC(=O)NO)S(=O)(=O)c2ccc(NC(=O)N(Cc3ccccc3)Cc3ccccc3)cc2)cc1` [Compound B, 3-{[4-(3,3-Dibenzyl-ureido)-benzenesulfonyl]-[2-(4-methoxy-phenyl)-ethyl]-amino}-N-hydroxy-propionamide], the “ATP (relative light units)” value in the assay on H9c2 rat cardiomyocytes worked out at 683.5 relative light units. The “Adrenomedullin gene expression, fold-increase above non-treated control” value in assay [1] is recorded as 8.334 fold.

Regarding `O=C(O)CNC(=O)c1ncc2cc(Sc3ccccc3)ccc2c1O` [Compound C, [(4-Hydroxy-7-phenylsulfanyl-isoquinoline-3-carbonyl)-amino]-acetic acid], the “ATP (relative light units)” value in the assay on H9c2 rat cardiomyocytes is recorded as 3710 relative light units. For the same molecule, the “Adrenomedullin gene expression, fold-increase above non-treated control” value in assay [1] was determined as 3.896 fold. Besides, the results for the “Adm gene expression, fold-increase above DMSO control” value in assay [2] (no KCN) and in assay [2] (setting [3]) were 4.8 fold and 7.9 fold, respectively. Moreover, the “HO-1 (ng/mg total cell protein)” value in the assay with HO-1 protein is given as 102.68 ng/mg total cell protein.

As to `O=C(O)CNC(=O)c1ncc2ccc(Sc3ccccc3)cc2c1O` [Compound D, [(4-Hydroxy-6-phenylsulfanyl-isoquinoline-3-carbonyl)-amino]-acetic acid], the “ATP (relative light units)” value in the assay with H9c2 rat cardiomyocytes was 859.5 relative light units. The “Adm gene expression, fold-increase above DMSO control” value in assay [2] (no KCN) is given as 2.2 fold; in assay [2] (setting [3]), 4.2 fold.

In the case of `O=C(O)CNC(=O)c1nc(Cl)c2cc(Oc3ccccc3)ccc2c1O` [Compound E, [(1-Chloro-4-hydroxy-7-phenoxy-isoquinoline-3-carbonyl)-amino]-acetic acid], the “ATP (relative light units)” value in the assay with H9c2 rat cardiomyocytes amounted to 2043 relative light units.

On to `O=C(O)CNC(=O)c1nc(Br)c2cc(Oc3ccccc3)ccc2c1O` [Compound F, [(1-Bromo-4-hydroxy-7-phenoxy-isoquinoline-3-carbonyl)-amino]-acetic acid], for which, in the assay on H9c2 rat cardiomyocytes, the “ATP (relative light units)” value is listed as 1134 relative light units.

With `O=C(O)CNC(=O)c1nc(Cl)c2ccccc2c1O` [Compound H, [(1-Chloro-4-hydroxy-isoquinoline-3-carbonyl)-amino]-acetic acid], in the assay with H9c2 rat cardiomyocytes, the “ATP (relative light units)” value is on record as 947 relative light units. The “Adrenomedullin gene expression, fold-increase above non-treated control” value in assay [1] was determined as 1.298 fold. In addition, in the assay with gene encoding HSP70-3 (Animal Study I: mice, oral gavage two times per day for 2.5 days, 200 mg/kg/day, four hours after final dose), the “HSP70-3 mRNA Levels Liver” value is 2.77. Besides, in the assay with gene encoding HSP70-3 (setting [4]), the “HSP70-3 mRNA Levels Liver” value came to 1.441 and the “HSP70-3 mRNA Levels Lung” value turned out to be 3.0.
